Measurements taken from patent publication US20170037030A1, “AUTOTAXIN INHIBITORS” (NOVARTIS AG, priority 2014, published 2017).

Biological target: T1, Recombinant human ATX (Homo sapiens, UniProt Q13822)
T1 construct: made in house; host or cells: human embryonic kidney (HEK) cells
Test: ATX inhibition assay (released choline, Amplex Red fluorescence)
Format: biochemical
Conditions: ATX 10 nM, LPC 18:1 10 μM, pre-incubated with ATX at 37° C. for 20 minutes; mean of n≧2
Description: Reagents—LPC (oleoyl (18:1)) was purchased from Avert Polar Lipids (Alabaster, Ala.) and solubilized in methanol to 20 mM. Amplex Red was obtained from Invitrogen Life Technologies (Paisley, UK) and dissolved in DMSO to 10 mM. Choline oxidase and horseradish peroxidase (HRP) were obtained from Sigma Aldrich (Dorset, UK) and dissolved in HBSS to 20 U/ml and 200 U/ml respectively. All reagents were stored at −20° C. in single use aliquots. All experimental measurements were performed in assay buffer made up immediately prior to use (HBSS, 0.01% BSA essentially fatty acid free). […]
Method—All experimental measurements were performed in black 384 well polystyrene (low volume, round bottom, Corning (3676)) plates. PerkinElmer EnVision (Fluorescence Intensity/Absorbance Monochromator) or Tecan Infinite 200 PRO series plate reader was used to detect change in fluorescent intensity.
Assessing ATX inhibition—ATX activity was determined by measurement of released choline in reactions containing ATX (10 nM), choline oxidase (0.1 U/ml), HRP (100 U/ml), amplex red (50 μM) and LPC 18:1 (10 μM). […] The liberated choline was measured from changes in fluorescence intensity (Aex 530 nm, Aem 590 nm) of the product resurofin at 37° C. every 2 minutes over a 40-minute period. ATX activity was measured as a slope of the linear portion of the progress curve, typically between 14 to 24 minutes. […]

Compound | IC50
O=C(CCC(=O)c1c[nH]nn1)NC1CCN(C(=O)OCc2cc(Cl)cc(Cl)c2)CC1 [Example 1, 3,5-dichlorobenzyl 4-(4-oxo-4-(1H-1,2,3-triazol-4-yl)butanamido)piperidine-1-carboxylate] | 70 nM
O=C(CCC(O)c1c[nH]nn1)NC1CCN(C(=O)OCc2cc(Cl)cc(Cl)c2)CC1 (centres unmarked) [Example 2, 3,5-dichlorobenzyl 4-(4-hydroxy-4-(1H-1,2,3-triazol-4-yl)butanamido)piperidine-1-carboxylate] | 10 nM
